Test results: ChEMBL document CHEMBL1153203, “Proposed structural basis of interaction of piperine and related compounds with monoamine oxidases” (Bioorg Med Chem Lett, 2010)
pKi: −log10 of the molar value.

How the values were obtained:
[1] = molecular target: T1, Amine oxidase [flavin-containing] B (Mus musculus, UniProt Q8BW75); experiment: Inhibition of mouse brain MAOB
T1 sequence (Q8BW75 whole entry): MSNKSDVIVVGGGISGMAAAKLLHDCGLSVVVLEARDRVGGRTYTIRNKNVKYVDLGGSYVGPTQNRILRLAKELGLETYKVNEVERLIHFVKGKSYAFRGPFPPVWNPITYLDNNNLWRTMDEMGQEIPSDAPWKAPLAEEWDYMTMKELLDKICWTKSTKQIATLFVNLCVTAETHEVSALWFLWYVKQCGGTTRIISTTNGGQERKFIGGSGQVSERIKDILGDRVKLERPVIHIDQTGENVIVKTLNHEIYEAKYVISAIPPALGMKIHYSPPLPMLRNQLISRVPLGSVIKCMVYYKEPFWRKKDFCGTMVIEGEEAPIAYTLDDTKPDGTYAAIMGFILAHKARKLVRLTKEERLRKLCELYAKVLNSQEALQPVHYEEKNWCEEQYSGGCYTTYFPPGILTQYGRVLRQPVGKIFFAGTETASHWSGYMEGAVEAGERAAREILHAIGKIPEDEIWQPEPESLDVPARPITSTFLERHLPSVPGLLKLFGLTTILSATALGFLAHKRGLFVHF

[2] = molecular target: T2, Amine oxidase [flavin-containing] A (Mus musculus, UniProt Q64133); experiment: Inhibition of mouse brain MAOA
T2 sequence (Q64133 whole entry): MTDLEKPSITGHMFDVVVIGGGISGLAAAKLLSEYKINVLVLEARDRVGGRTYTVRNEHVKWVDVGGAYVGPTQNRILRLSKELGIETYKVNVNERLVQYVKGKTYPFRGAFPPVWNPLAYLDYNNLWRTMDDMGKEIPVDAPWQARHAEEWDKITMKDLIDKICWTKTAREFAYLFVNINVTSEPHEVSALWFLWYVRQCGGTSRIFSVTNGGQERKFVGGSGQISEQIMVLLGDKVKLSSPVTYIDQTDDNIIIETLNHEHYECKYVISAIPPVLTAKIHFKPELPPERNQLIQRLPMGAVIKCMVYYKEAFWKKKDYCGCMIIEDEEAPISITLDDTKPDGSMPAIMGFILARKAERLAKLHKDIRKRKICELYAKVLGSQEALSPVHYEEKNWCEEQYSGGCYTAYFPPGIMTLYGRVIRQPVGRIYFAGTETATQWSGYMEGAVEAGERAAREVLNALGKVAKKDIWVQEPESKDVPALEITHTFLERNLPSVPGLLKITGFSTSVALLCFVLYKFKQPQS

[3] = molecular target: T3, Amine oxidase [flavin-containing] B (Rattus norvegicus, UniProt P19643); experiment: Inhibition of MAOB in rat brain mitochondria
T3 sequence (P19643 whole entry): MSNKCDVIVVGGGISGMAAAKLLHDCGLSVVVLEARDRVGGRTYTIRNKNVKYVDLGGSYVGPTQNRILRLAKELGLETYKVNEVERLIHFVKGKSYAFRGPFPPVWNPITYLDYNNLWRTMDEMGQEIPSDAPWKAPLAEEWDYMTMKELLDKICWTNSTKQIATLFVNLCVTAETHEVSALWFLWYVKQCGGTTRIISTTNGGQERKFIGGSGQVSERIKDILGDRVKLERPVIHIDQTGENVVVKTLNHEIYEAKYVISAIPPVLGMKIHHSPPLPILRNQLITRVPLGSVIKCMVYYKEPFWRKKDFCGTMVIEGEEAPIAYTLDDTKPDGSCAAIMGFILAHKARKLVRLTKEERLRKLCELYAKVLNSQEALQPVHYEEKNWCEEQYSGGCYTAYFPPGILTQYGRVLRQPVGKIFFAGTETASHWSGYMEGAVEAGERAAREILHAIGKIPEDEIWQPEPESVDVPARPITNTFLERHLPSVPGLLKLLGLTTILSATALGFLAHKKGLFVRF

[4] = molecular target: T4, Amine oxidase [flavin-containing] A (Rattus norvegicus, UniProt P21396); experiment: Inhibition of MAOA in rat brain mitochondria
T4 sequence (P21396 whole entry): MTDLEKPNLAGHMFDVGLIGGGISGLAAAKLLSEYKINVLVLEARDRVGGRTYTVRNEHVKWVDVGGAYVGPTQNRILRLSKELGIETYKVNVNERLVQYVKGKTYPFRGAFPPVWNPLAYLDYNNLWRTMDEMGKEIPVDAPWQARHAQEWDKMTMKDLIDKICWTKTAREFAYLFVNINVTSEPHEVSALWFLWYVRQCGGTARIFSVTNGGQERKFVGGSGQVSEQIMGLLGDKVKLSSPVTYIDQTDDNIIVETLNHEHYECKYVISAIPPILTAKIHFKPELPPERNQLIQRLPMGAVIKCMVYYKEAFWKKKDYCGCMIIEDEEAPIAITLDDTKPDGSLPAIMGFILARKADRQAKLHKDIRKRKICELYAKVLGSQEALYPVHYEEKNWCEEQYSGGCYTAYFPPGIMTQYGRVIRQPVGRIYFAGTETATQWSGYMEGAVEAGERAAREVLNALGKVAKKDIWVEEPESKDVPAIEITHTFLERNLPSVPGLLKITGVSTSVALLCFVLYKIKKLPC

pKi [1]	pKi [2]	pKi [3]	pKi [4]	Structure (SMILES)
5.80	4.57			COC(=O)/C=C/C=C/c1ccc2c(c1)OCO2 [METHYL PIPERATE]
5.50	4.72	4.04	4.31	O=C(/C=C/C=C/c1ccc2c(c1)OCO2)N1CCCCC1 [PIPERINE]
